Test results taken from patent US9034891B2, “Bicyclic heterocyclic spiro compounds” (ISRAEL INSTITUTE FOR BIOLOGICAL RESEARCH, priority 2009, dated 2015).

Experiments:
[1] = tested on: PC12 cells; assay: MTT assay, β-amyloid 25-35 toxicity in PC12 cells; type: cell-based, rat; conditions: 5 μM β-amyloid 25-35, 6 hours; 10 μM-1 nM
Description: The 3-(4,5-dimethylthiazol-2-yl)-2,5-diphenyl-tetrazolium bromide (MTT) assay measures changes that occur within the cells, involving mitochondria activation, indicative of a process that eventually leads to cell death (Fagarasan et al., Mol. Psychiat. 1996, 1:398-403). This assay is a specific, early indicator of the mechanism of β-amyloid-mediated cell death (Shearman et al., PNAS USA 1994, 91:1470-74). This assay was used to evaluate compounds of formulae I and II. Rat pheochromocytoma (PC12) cells were plated in 96 well plate at a density of 10,000 cells/well, and maintained in Dulbecco's modified Eagle medium (Gibco, Cat. 21969) supplemented with 5% fetal bovine serum (Biological Industries, Cat. 04-121-1A), 10% heat-inactivated horse serum (Gibco Cat. 26050), L-Glutamine 200 mM (Biological Industries, Cat. 03-020-1C), Penicillin 10000 U/ml (Biological Industries, Cat 03-031-1C), and Amphotericin B 50 mg/ml (Biological Industries, Cat. 01-029-1C). The next day the medium was refreshed with serum free media and cells were treated with 5 μM β-amyloid 25-35 (H-1192.0001, Bachem) in the presence or absence of the test compound. Compounds were tested for 6 hours, respectively, at final concentrations ranging between 0.1 nM to 100 μM. 3-Indolepropionic acid (3-IPA, Cat. 220027, Sigma Aldrich) served as a reference antioxidant.

[2] = target: T1, M1 mAChR (Homo sapiens, UniProt P11229); assay: αAPPs secretion in CHO cells double transfected with human APP695 and human M1 mAChR; type: cell-based
T1 sequence (P11229 1-460): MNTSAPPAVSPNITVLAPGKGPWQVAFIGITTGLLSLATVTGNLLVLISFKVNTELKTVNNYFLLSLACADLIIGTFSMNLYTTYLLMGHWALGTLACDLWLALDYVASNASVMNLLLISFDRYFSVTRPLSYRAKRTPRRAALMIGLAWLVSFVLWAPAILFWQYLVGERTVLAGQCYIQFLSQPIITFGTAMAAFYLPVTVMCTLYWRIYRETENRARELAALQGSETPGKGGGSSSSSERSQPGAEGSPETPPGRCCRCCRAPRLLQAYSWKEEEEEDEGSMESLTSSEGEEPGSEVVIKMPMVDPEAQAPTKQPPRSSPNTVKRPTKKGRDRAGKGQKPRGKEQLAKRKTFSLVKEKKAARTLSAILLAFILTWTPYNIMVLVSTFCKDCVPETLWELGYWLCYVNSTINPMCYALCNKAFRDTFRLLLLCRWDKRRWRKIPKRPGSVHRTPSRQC
Description: (§1) α-APPs Secretion studies following incubation with the tested compounds were performed as described in Haring, et al. J. Neurochem., 1998, 71:2094-103. […] A day later, cells were washed twice with serum free media, and treated with the test compound at various concentrations ranging from 0.1 nM to 100 μM. […] After 1 hour the conditioned medium was collected to cold Eppendorf tubes, which included a protease inhibitor cocktail (0.1 mM phenylmethylsulphonyl fluoride (PMSF); 5 μg/ml leupeptin; 5 μg/ml pepstatin and 5 units/ml aprotinin) for determining αAPPs release. The protein content of each sample was concentrated using Centricon tubes (Amicon, Beverly, Mass.). […] CHO cells double transfected with human APP695 and M1 mAChR APPs bands were probed using anti-amyloid beta protein (1:1000, monoclonal 6E10 antibody, MAB1560, Chemicon) and peroxidase-linked rabbit anti mouse IgG (1:5,000; Jackson Immuno Research, PA). PC12 cells stably transfected with M1 mAChR APPs bands were probed using the anti-Alzheimer precursor protein A4 (1:4,000; monoclonal 22C11 antibody, Boehringer Mannheim) and the peroxidase-linked rabbit anti mouse IgG (1:20,000; Jackson Immuno Research, PA). Following extensive washout, the membranes were treated with Western Lightning Chemiluminescence Reagent Plus (PerkinElmer Life Sciences, MA) followed by exposure to SuperRX film (Fuji Medical X-ray film, Tokyo, Japan). Quantitative determination of the total APPs bands was performed by Scion Image program (NIH, Bethesda, USA). Samples of control and CCh were assayed in parallel and thus enabled compilation of data from separate experiments.

[3] = target: T2, rat M1 mAChR (Rattus norvegicus, UniProt P08482); assay: αAPPs secretion in PC12 cells stably transfected with rat M1 mAChR; type: cell-based; conditions: 0.1 nM to 1 μM, not observed in untransfected PC12
T2 construct: expressed in transfected cells; host or cells: rat pheochromocytoma PC12 cells
T2 sequence (P08482 whole entry): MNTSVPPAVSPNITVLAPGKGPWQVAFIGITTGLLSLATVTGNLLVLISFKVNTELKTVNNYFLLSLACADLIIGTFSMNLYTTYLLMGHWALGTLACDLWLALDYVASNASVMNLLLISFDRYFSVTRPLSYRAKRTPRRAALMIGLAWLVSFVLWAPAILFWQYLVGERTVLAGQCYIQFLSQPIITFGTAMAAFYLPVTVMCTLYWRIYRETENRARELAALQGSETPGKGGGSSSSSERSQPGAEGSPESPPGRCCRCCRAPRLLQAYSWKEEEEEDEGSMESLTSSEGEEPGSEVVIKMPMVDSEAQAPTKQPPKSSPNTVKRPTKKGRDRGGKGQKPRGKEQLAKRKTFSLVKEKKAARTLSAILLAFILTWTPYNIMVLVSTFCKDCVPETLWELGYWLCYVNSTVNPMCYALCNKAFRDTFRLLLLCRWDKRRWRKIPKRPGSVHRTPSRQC
Description: as §1, with “Following extensive washout, the membranes were treated with Western Lightning Chemiluminescence Reagent Plus (PerkinElmer Life Sciences, MA) followed by exposure to SuperRX film (Fuji Medical X-ray film, Tokyo, Japan).” left out, “Samples of control and CCh were assayed in parallel and thus enabled compilation of data from separate experiments.” left out

[4] = target: T1, M1 mAChR
[5] = target: T1, M1 mAChR; assay: Intracellular Ca2+ mobilization (Fluo-4 NW) in cells stably transfected with M1 mAChR; type: cell-based; parameters: expressed in transfected cells; conditions: 100 μM; mobilization of intracellular Ca ions
Description: On the day of experiment, cells were fully confluent.
To evaluate selectivity for a subtype of mAChR, in particular the M1 mAChR vs. M3 and MS mAChR, the assays were calibrated using ligands that have a combined activity, e.g. M1 agonistic and M3 antagonistic or M1 agonistic and MS antagonistic profiles, respectively. This can eliminate effects due to different receptor reserves in cell-based assays.

SMILES | protection against toxicity induced by Aβ25-35 (MTT) [1] | release of αAPPs ([2]; CHO cells, 0.1 nM to 1 μM) | maximal αAPPs secretion in comparison to untreated control cells ([2]; doubly-transfected CHO cells, AF710B at 0.01 μM, AF710 at 0.1 μM, AF710A at 1 μM) [%] | release of αAPPs [3] | effect of brucine pre-incubation on elevation of intracellular calcium ions [4] | M1 agonist at 100 μM vs. carbachol (full muscarinic agonist, 100%) [5] [%]
CC1SC2(CCN(C)CC2)CN1C(=O)CCc1c[nH]c2ccccc12 (racemic) [AF710, 1-(2,8-dimethyl-1-thia-3,8-diazaspiro[4.5]dec-3-yl)-3-(1H-indol-3-yl) propan-1-one] | protected cells | enhanced the release of αAPPs | 175 | enhanced the release of αAPPs | no such effect | 40
O=C(O)CCc1c[nH]c2ccccc12 [3-IPA, 3-Indolepropionic acid, reference compound] | protected cells |  |  |  |  | 
CC1OC2(CCN(C)CC2)CN1C(=O)CCc1c[nH]c2ccccc12 (racemic) [AF711, 1-(2,8-dimethyl-1-oxa-3,8-diazaspiro[4.5]dec-3-yl)-3-(1H-indol-3-yl)-propan-1-one] | protected cells |  |  |  |  | 19
